The results in this text go back to patent publication US20100256177A1, “Flavopereirine derivatives for cancer therapy” (priority 2004, published 2010).

Common to all, as to format: cell-based
Test [1] deals with SW620 (colon) human tumor cell line. Nature of the test: three day MTT cytotoxicity assay, SW620 colon. The conditions noted are these: SW620 colon cells, 72 hours. The method, then:
(§1) A number of the Flavopereirine derivatives were tested for cytotoxicity against nine (9) human tumor cell lines. Briefly, a three day MTT cytotoxicity assay was performed, which is based on the principle of uptake of MTT (3-(4,5-dimethylthiazol-2-yl)-2,5-diphenyl tetrazolium bromide), a tetrazolium salt, by the metabolically active cells where it is metabolized by active mitochondria into a blue colored formazan product that is read spectrophotometrically. MIT was dissolved in phosphate buffered saline with a pH of 7.4 to obtain an MTT concentration of 5 mg/ml; the resulting mixture was filtered through a 0.22-micron filter to sterilize and remove a small amount of insoluble residue. For each type of tumor cell, 10000 to 15000 cells were seeded in a 96-well culture plate and incubated with the individual Flavopereirine derivatives in concentration ranging from 1-20 μg/ml in a CO2 incubator for a total of 72 hours. Control cells not treated with the Flavopereirine derivatives were similarly incubated. The assay was terminated by adding 100 μg (20 μl) of MTT to each well, then incubating for additional one hour, and finally adding 50 μl of 10% SDS-0.01N HCl to each well to lyse the cells and dissolve formazan. After incubating for one hour, the plate was read spectrophotometrically at 540 nm and the percentage of cytotoxicity calculated using the following formula:
(§2) Cytotoxicity percentage=100×[1-(X/R1)], where X=(absorbance of treated sample at 540 nm)−(absorbance of blank at 540 nm) R1=absorbance of control sample at 540 nm.
(§3) The IC50 Values of the cytotoxicity defined as the concentration at which 50% of the cells are killed in vitro was calculated for each cell line treated with each of the Flavopereirine derivatives.
(§4) The cell lines are ovary (PA-1), breast (MCF-7), prostate (DU145), pancreas (MiaPaCa.2), oral cavity (KB), lung (L132), colon (SW620), and larynx (HeP2).
(Tetrazolium assays rely on reduction of a dye to a coloured formazan, in cell work by metabolically active cells.)

Test [2] relates to PA1 (ovary) human tumor cell line. Nature of the test: three day MTT cytotoxicity assay, PA1 ovarian. The conditions noted are these: PA1 ovarian cells, 72 hours. The protocol:
as §1, §2, §3, §4

For test [3], the system named is MCF7 (breast) human tumor cell line. The test can be described thus: three day MTT cytotoxicity assay, MCF7 breast. Particulars: MCF7 breast cells, 72 hours. The protocol:
as §1, §2, §3, §4

The subject of test [4] is MiaPaca2 (pancreas) human tumor cell line. Nature of the test: three day MTT cytotoxicity assay, MiaPaca2 pancreas. The conditions noted are these: MiaPaca2 pancreas cells, 72 hours. The protocol: as §1, §2, §3, §4
Test [5] relates to Hep2 (larynx) human tumor cell line. Nature of the test: three day MTT cytotoxicity assay, Hep2 larynx. Particulars: Hep2 larynx cells, 72 hours. The method, then:
as §1, §2, §3, §4

In test [6] the test system is L132 (lung) human tumor cell line. The test can be described thus: three day MTT cytotoxicity assay, L132 lung. Particulars: L132 lung cells, 72 hours. The method, then: as §1, §2, §3, §4
In test [7] the test system is KB (oral cavity) human tumor cell line. Nature of the test: three day MTT cytotoxicity assay, KB oral. Particulars: KB oral cells, 72 hours. The protocol: as §1, §2, §3, §4
Test [8] relates to DU145 (prostate) human tumor cell line. Nature of the test: three day MTT cytotoxicity assay, DU145 prostate. The conditions noted are these: DU145 prostate cells, 72 hours. The protocol:
as §1, §2, §3, §4

For test [9], the system named is ECV-304 (endothelial) cell line. Nature of the test: three day MTT cytotoxicity assay, ECV-304 endothelial. Particulars: ECV-304 endothelial cells, 72 hours. The protocol:
as §1, §2, §3

Bounds are passed on as bounds.

On to `Oc1ccc2[n+](c1)CCc1c-2[nH]c2ccccc12` [Compound 22, 3-hydroxy-6,7-dihydroindolo[2,3-a]quinolizinium], for which the “IC50 (μg/mL) of Flavoperereine derivatives in human tumor cell lines, SW620 Colon” value (“IC50 (μg/mL) … SW620 Colon” for short) in test [1] was above 100 µg/mL. In addition, the “IC50 (μg/mL) of Flavoperereine derivatives in human tumor cell lines, PA1 Ovarian” value (“IC50 (μg/mL) … PA1 Ovarian” for short) in test [2] was above 100 µg/mL. In test [3], the “IC50 (μg/mL) of Flavoperereine derivatives in human tumor cell lines, MCF7 Breast” value (“IC50 (μg/mL) … MCF7 Breast” for short) was above 100 µg/mL. Further, the “IC50 (μg/mL) of Flavoperereine derivatives in human tumor cell lines, MiaPaca2 Pancreas” value (“IC50 (μg/mL) … MiaPaca2 Pancreas” for short) in [4] is above 100 µg/mL. In test [5], the “IC50 (μg/mL) of Flavoperereine derivatives in human tumor cell lines, Hep2 Larynx” value (shortened to “IC50 (μg/mL) … Hep2 Larynx”) was above 100 µg/mL. Also, the “IC50 (μg/mL) of Flavoperereine derivatives in human tumor cell lines, L132 Lung” value (from here on “IC50 (μg/mL) … L132 Lung”) in [6] is above 100 µg/mL. In test [7], the “IC50 (μg/mL) of Flavoperereine derivatives in human tumor cell lines, KB Oral” value (shortened to “IC50 (μg/mL) … KB Oral”) is above 100 µg/mL. The “IC50 (μg/mL) of Flavoperereine derivatives in human tumor cell lines, DU145 Prostate” value (from here on “IC50 (μg/mL) … DU145 Prostate”) in [8] was above 100 µg/mL.

On to `c1ccc(COc2ccc3c4[nH]c5ccccc5c4cc[n+]3c2)cc1` [Compound 28, 3-benzyloxyindolo[2,3-a]quinolizinium], for which, in [1], the “IC50 (μg/mL) … SW620 Colon” value was below 1 µg/mL. The “IC50 (μg/mL) … PA1 Ovarian” value in test [2] is 1.5 µg/mL. The “IC50 (μg/mL) … MCF7 Breast” value in [3] stood at 5 µg/mL. For the same compound, in test [4], the “IC50 (μg/mL) … MiaPaca2 Pancreas” value is 2 µg/mL. The “IC50 (μg/mL) of Flavoperereine derivatives in human tumor cell lines, ECV-304 Endothelial” value (“IC50 (μg/mL) … ECV-304 Endothelial” below) in [9] is 4 µg/mL. Further, in [5], the “IC50 (μg/mL) … Hep2 Larynx” value came out at 1.5 µg/mL. Moreover, the “IC50 (μg/mL) … L132 Lung” value in [6] was determined as 2 µg/mL. The “IC50 (μg/mL) … KB Oral” value in [7] came out at 2 µg/mL. In [8], the “IC50 (μg/mL) … DU145 Prostate” value is 2 µg/mL.

Take `[Br-].c1ccc(COc2ccc3c4[nH]c5ccccc5c4cc[n+]3c2)cc1` [Compound 31]: in test [1], the “IC50 (μg/mL) … SW620 Colon” value was determined as 5 µg/mL. The “IC50 (μg/mL) … PA1 Ovarian” value in test [2] is 4 µg/mL. Further, in test [3], the “IC50 (μg/mL) … MCF7 Breast” value was 4 µg/mL. In addition, in test [4], the “IC50 (μg/mL) … MiaPaca2 Pancreas” value was below 1 µg/mL. Moreover, in test [9], the “IC50 (μg/mL) … ECV-304 Endothelial” value worked out at 13.5 µg/mL. Also, the “IC50 (μg/mL) … Hep2 Larynx” value in [5] came to 3 µg/mL. Besides, the “IC50 (μg/mL) … L132 Lung” value in [6] came to 4.5 µg/mL. Also, the “IC50 (μg/mL) … KB Oral” value in test [7] is below 1 µg/mL. Also, the “IC50 (μg/mL) … DU145 Prostate” value in test [8] was 4.5 µg/mL.

As to `BrCCCOc1ccc2c3[nH]c4ccccc4c3cc[n+]2c1.[O-][Cl+3]([O-])([O-])[O-]` [Compound 30], the “IC50 (μg/mL) … SW620 Colon” value in test [1] worked out at 6 µg/mL. The “IC50 (μg/mL) … PA1 Ovarian” value in test [2] came out at 2 µg/mL. In addition, the “IC50 (μg/mL) … MCF7 Breast” value in test [3] is 6 µg/mL. Also, the “IC50 (μg/mL) … MiaPaca2 Pancreas” value in test [4] was determined as 4 µg/mL. Besides, in test [9], the “IC50 (μg/mL) … ECV-304 Endothelial” value was 6 µg/mL. In addition, the “IC50 (μg/mL) … Hep2 Larynx” value in test [5] came to 1.5 µg/mL. Also, the “IC50 (μg/mL) … L132 Lung” value in [6] stood at 10 µg/mL. The “IC50 (μg/mL) … KB Oral” value in test [7] was 10 µg/mL. The “IC50 (μg/mL) … DU145 Prostate” value in test [8] was found to be 7.5 µg/mL.

With `Brc1ccc(COc2ccc3[n+](c2)CCc2c-3[nH]c3ccccc23)cc1.[Br-]` [Compound 26], the “IC50 (μg/mL) … SW620 Colon” value in [1] is above 100 µg/mL. In test [2], the “IC50 (μg/mL) … PA1 Ovarian” value was above 100 µg/mL. For the same compound, the “IC50 (μg/mL) … MCF7 Breast” value in test [3] is above 100 µg/mL. In test [4], the “IC50 (μg/mL) … MiaPaca2 Pancreas” value came to 9.5 µg/mL. Also, the “IC50 (μg/mL) … ECV-304 Endothelial” value in test [9] came out at 12 µg/mL. The “IC50 (μg/mL) … Hep2 Larynx” value in test [5] stood at 24 µg/mL. The “IC50 (μg/mL) … KB Oral” value in test [7] was 6 µg/mL. Moreover, the “IC50 (μg/mL) … DU145 Prostate” value in [8] amounted to 7.5 µg/mL.

For the compound `Fc1ccc(COc2ccc3c4[nH]c5ccccc5c4cc[n+]3c2)cc1.[O-][Cl+3]([O-])([O-])[O-]` [Compound 32], the “IC50 (μg/mL) … SW620 Colon” value in test [1] worked out at 5 µg/mL. For the same compound, in test [2], the “IC50 (μg/mL) … PA1 Ovarian” value worked out at 6 µg/mL. Moreover, the “IC50 (μg/mL) … MCF7 Breast” value in [3] was below 1 µg/mL. For the same compound, the “IC50 (μg/mL) … MiaPaca2 Pancreas” value in test [4] is below 1 µg/mL. Further, in test [9], the “IC50 (μg/mL) … ECV-304 Endothelial” value came to 24 µg/mL. Besides, in [5], the “IC50 (μg/mL) … Hep2 Larynx” value is 4 µg/mL. In addition, the “IC50 (μg/mL) … L132 Lung” value in test [6] was below 1 µg/mL. The “IC50 (μg/mL) … KB Oral” value in [7] was below 1 µg/mL. Moreover, the “IC50 (μg/mL) … DU145 Prostate” value in test [8] came to 2 µg/mL.

Take `CCOc1ccc2[n+](c1)CCc1c-2[nH]c2ccccc12` [Compound 24, 3-ethoxy-6,7-dihydroindolo[2,3-a]quinolizinium]: the “IC50 (μg/mL) … SW620 Colon” value in test [1] came out at 30 µg/mL. The “IC50 (μg/mL) … PA1 Ovarian” value in test [2] is 38 µg/mL. Besides, in test [9], the “IC50 (μg/mL) … ECV-304 Endothelial” value stood at 64 µg/mL. Also, the “IC50 (μg/mL) … Hep2 Larynx” value in test [5] was determined as 89 µg/mL. Moreover, in test [6], the “IC50 (μg/mL) … L132 Lung” value came out at 20 µg/mL. Also, in test [7], the “IC50 (μg/mL) … KB Oral” value is 50 µg/mL.

As for `CCCCOc1ccc2c3[nH]c4ccccc4c3cc[n+]2c1.[Br-]` [Compound 33], the “IC50 (μg/mL) … SW620 Colon” value in test [1] was determined as 1.4 µg/mL. The “IC50 (μg/mL) … PA1 Ovarian” value in test [2] was below 1 µg/mL. Besides, the “IC50 (μg/mL) … MCF7 Breast” value in test [3] was 3 µg/mL. Also, the “IC50 (μg/mL) … MiaPaca2 Pancreas” value in test [4] was determined as 2 µg/mL. For the same compound, the “IC50 (μg/mL) … Hep2 Larynx” value in [5] was determined as 2.4 µg/mL. For the same compound, in test [7], the “IC50 (μg/mL) … KB Oral” value amounted to 1.6 µg/mL. Besides, in test [8], the “IC50 (μg/mL) … DU145 Prostate” value was determined as 5 µg/mL.

With `CCCCOc1ccc2[n+](c1)CCc1c-2[nH]c2ccccc12.[Br-]` [Compound 27], the “IC50 (μg/mL) … SW620 Colon” value in test [1] is 4 µg/mL. The “IC50 (μg/mL) … PA1 Ovarian” value in test [2] came to 4.7 µg/mL. Besides, the “IC50 (μg/mL) … MCF7 Breast” value in test [3] came out at 6 µg/mL. In [4], the “IC50 (μg/mL) … MiaPaca2 Pancreas” value stood at 7.5 µg/mL. In addition, the “IC50 (μg/mL) … Hep2 Larynx” value in test [5] was 5 µg/mL. In addition, the “IC50 (μg/mL) … KB Oral” value in test [7] was 7 µg/mL. In addition, the “IC50 (μg/mL) … DU145 Prostate” value in [8] is 9 µg/mL.

As for `CCOc1ccc2c3[nH]c4ccccc4c3cc[n+]2c1` [Compound 29, 3-ethoxyindolor-2,3-alquinolizinium], in test [1], the “IC50 (μg/mL) … SW620 Colon” value came to 10 µg/mL. Besides, in test [2], the “IC50 (μg/mL) … PA1 Ovarian” value is 5 µg/mL. For the same compound, the “IC50 (μg/mL) … ECV-304 Endothelial” value in [9] was 4 µg/mL. Besides, the “IC50 (μg/mL) … Hep2 Larynx” value in test [5] stood at 8.0 µg/mL. Besides, in test [6], the “IC50 (μg/mL) … L132 Lung” value is 15 µg/mL. The “IC50 (μg/mL) … KB Oral” value in test [7] worked out at 10 µg/mL.
